Residues, ends and D or L forms follow the SMILES beside them. *: point of attachment. X1 = C[C@H](NC(=O)N1CCC[C@H]1C(=O)NCC(=O)N[C@@H](CO)C(=O)N[C@@H](CCCN=C(N)N)C(N)=O)C(=O)NC(=O)CN*
molecular target: T1, Orexin receptor type 2 (Homo sapiens, UniProt O43614); assay: Agonist activity against human orexin 2 receptor; EC50; nM; assay type: functional
T1 sequence (O43614 whole entry): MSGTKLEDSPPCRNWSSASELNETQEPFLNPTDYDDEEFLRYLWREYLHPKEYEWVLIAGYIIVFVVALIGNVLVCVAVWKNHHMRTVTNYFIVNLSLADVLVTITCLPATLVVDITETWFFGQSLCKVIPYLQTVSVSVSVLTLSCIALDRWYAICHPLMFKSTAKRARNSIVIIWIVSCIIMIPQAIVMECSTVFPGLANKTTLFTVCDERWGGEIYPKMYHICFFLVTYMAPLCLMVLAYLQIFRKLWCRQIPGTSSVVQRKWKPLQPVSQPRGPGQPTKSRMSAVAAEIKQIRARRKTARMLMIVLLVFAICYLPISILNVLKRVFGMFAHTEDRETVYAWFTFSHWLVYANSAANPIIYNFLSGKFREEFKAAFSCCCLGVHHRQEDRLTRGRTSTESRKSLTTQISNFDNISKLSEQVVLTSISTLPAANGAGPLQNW

`CC[C@H](C)[C@H](NC(=O)[C@H](CC(C)C)NC(=O)[C@@H](NC(=O)[C@@H](N)CCSC)[C@@H](C)O)C(=O)NCC(=O)N[C@@H](C)C(=O)N[C@@H](C)C(=O)N[C@@H](Cc1c[nH]cn1)C(=O)N[C@@H](CC(N)=O)C(=O)NCC(=O)N[C@@H](CO)C(=O)N[C@@H](C)C(=O)N[C@@H](CCC(N)=O)C(=O)N[C@@H](CC(C)C)C(=O)N[C@@H](CC(C)C)C(=O)N[C@@H](CCCN=C(N)N)C(=O)N[C@@H](CCC(N)=O)C(=O)N[C@@H](CC(C)C)C(=O)N[C@@H](CCCN=C(N)N)C(=O)NCC(=O)N[C@@H](CCC(N)=O)C(=O)N[C@@H](CC(C)C)C(=O)NCC(=O)N1CCC[C@H]1C(=O)N1CCC[C@H]1C(=O)NCC(=O)N[C@@H](CO)C(=O)N[C@H](CCCN=C(N)N)C(N)=O` was tested. Which EC50 did it give?
The EC50 was 0.19 nM.

With `CC[C@H](C)[C@H](NC(=O)[C@H](CC(C)C)NC(=O)[C@@H](NC(=O)[C@@H](N)CCSC)[C@@H](C)O)C(=O)NCC(=O)N[C@@H](C)C(=O)N[C@@H](C)C(=O)N[C@@H](Cc1cnc[nH]1)C(=O)N[C@@H](CC(N)=O)C(=O)NCC(=O)N[C@@H](CO)C(=O)N[C@@H](C)C(=O)N[C@@H](CCC(N)=O)C(=O)N[C@@H](CC(C)C)C(=O)N[C@H](CC(C)C)C(=O)N[C@@H](CCCN=C(N)N)C(=O)N[C@@H](CCC(N)=O)C(=O)N[C@@H](CC(C)C)C(=O)N[C@@H](CCCN=C(N)N)C(=O)NCC(=O)N[C@@H](CCC(N)=O)C(=O)N[C@@H](CC(C)C)C(=O)NCC(=O)N1CCC[C@H]1C(=O)N1CCC[C@H]1C(=O)NCC(=O)N[C@@H](CO)C(=O)N[C@@H](CCCN=C(N)N)C(N)=O` as the compound, how does the EC50 read?
Its EC50 is 0.44 nM.

Which EC50 does the source give for `CC[C@H](C)[C@H](NC(=O)[C@H](CC(C)C)NC(=O)[C@@H](NC(=O)[C@@H](N)CCSC)[C@@H](C)O)C(=O)NCC(=O)N[C@@H](C)C(=O)N[C@@H](C)C(=O)N[C@@H](Cc1c[nH]cn1)C(=O)N[C@@H](CC(N)=O)C(=O)NCC(=O)N[C@H](CO)C(=O)N[C@@H](C)C(=O)N[C@@H](CCC(N)=O)C(=O)N[C@@H](CC(C)C)C(=O)N[C@@H](CC(C)C)C(=O)N[C@@H](CCCN=C(N)N)C(=O)N[C@@H](CCC(N)=O)C(=O)N[C@@H](CC(C)C)C(=O)N[C@@H](CCCN=C(N)N)C(=O)NCC(=O)N[C@@H](CCC(N)=O)C(=O)N[C@@H](CC(C)C)C(=O)NCC(=O)N1CCC[C@H]1C(=O)N1CCC[C@H]1C(=O)NCC(=O)N[C@@H](CO)C(=O)N[C@@H](CCCN=C(N)N)C(N)=O` here?
The EC50 was 0.46 nM.

`CC[C@H](C)[C@H](NC(=O)[C@H](CC(C)C)NC(=O)[C@@H](NC(=O)[C@@H](N)CCSC)[C@@H](C)O)C(=O)NCC(=O)N[C@@H](C)C(=O)N[C@@H](C)C(=O)N[C@@H](Cc1c[nH]cn1)C(=O)N[C@@H](CC(N)=O)C(=O)NCC(=O)N[C@@H](CO)C(=O)N[C@@H](C)C(=O)N[C@@H](CCC(N)=O)C(=O)N[C@@H](CC(C)C)C(=O)N[C@@H](CC(C)C)C(=O)N[C@@H](CCCN=C(N)N)C(=O)N[C@@H](CCC(N)=O)C(=O)N[C@@H](CC(C)C)C(=O)N[C@@H](CCCN=C(N)N)C(=O)N[C@@H](C)C(=O)N[C@@H](CCC(N)=O)C(=O)N[C@@H](CC(C)C)C(=O)NCC(=O)N1CCC[C@H]1C(=O)N1CCC[C@H]1C(=O)NCC(=O)N[C@@H](CO)C(=O)N[C@@H](CCCN=C(N)N)C(N)=O` was tested. Which EC50 did it give?
Its EC50 is 0.2 nM.

For `CC[C@H](C)[C@H](NC(=O)[C@H](CC(C)C)NC(=O)[C@@H](NC(=O)[C@@H](N)CCSC)[C@@H](C)O)C(=O)NCC(=O)N[C@@H](C)C(=O)N[C@@H](C)C(=O)N[C@@H](Cc1c[nH]cn1)C(=O)N[C@@H](CC(N)=O)C(=O)NCC(=O)N[C@@H](CO)C(=O)N[C@@H](C)C(=O)N[C@@H](CCC(N)=O)C(=O)N[C@@H](CC(C)C)C(=O)N[C@@H](CC(C)C)C(=O)N[C@@H](CCCN=C(N)N)C(=O)N[C@@H](CCC(N)=O)C(=O)N[C@@H](CC(C)C)C(=O)N[C@@H](CCCN=C(N)N)C(=O)NCC(=O)N[C@@H](CCC(N)=O)C(=O)N[C@@H](CC(C)C)C(=O)NCC(=O)N1CCC[C@H]1C(=O)N1CCC[C@@H]1C(=O)NCC(=O)N[C@@H](CO)C(=O)N[C@@H](CCCN=C(N)N)C(N)=O`, which EC50 is on record?
Its EC50 is 0.15 nM.

`CC[C@H](C)[C@H](NC(=O)[C@H](CC(C)C)NC(=O)[C@@H](NC(=O)[C@@H](N)CCSC)[C@@H](C)O)C(=O)NCC(=O)N[C@@H](C)C(=O)N[C@@H](C)C(=O)N[C@@H](Cc1c[nH]cn1)C(=O)N[C@@H](CC(N)=O)C(=O)NCC(=O)N[C@@H](CO)C(=O)N[C@@H](C)C(=O)N[C@@H](CCC(N)=O)C(=O)N[C@@H](CC(C)C)C(=O)N[C@@H](CC(C)C)C(=O)N[C@@H](CCCN=C(N)N)C(=O)N[C@H](CCC(N)=O)C(=O)N[C@H](CC(C)C)C(=O)N[C@@H](CCCN=C(N)N)C(=O)NCC(=O)N[C@@H](CCC(N)=O)C(=O)N[C@@H](CC(C)C)C(=O)NCC(=O)N1CCC[C@H]1C(=O)N1CCC[C@H]1C(=O)NCC(=O)N[C@@H](CO)C(=O)N[C@@H](CCCN=C(N)N)C(N)=O` was tested. Which EC50 did it give?
The EC50 was 0.11 nM.

H-MTLIGAAHNGSAQLARQLRGQLGPPGSR-NH2 was tested. Which EC50 did it give?
The EC50 was 0.065 nM.

Which EC50 does the source give for `CC[C@H](C)[C@H](NC(=O)[C@H](CC(C)C)NC(=O)[C@@H](NC(=O)[C@@H](N)CCSC)[C@@H](C)O)C(=O)NCC(=O)N[C@@H](C)C(=O)N[C@@H](C)C(=O)N[C@@H](Cc1c[nH]cn1)C(=O)N[C@@H](CC(N)=O)C(=O)NCC(=O)N[C@@H](CO)C(=O)N[C@@H](C)C(=O)N[C@@H](CCC(N)=O)C(=O)N[C@H](CC(C)C)C(=O)N[C@@H](CC(C)C)C(=O)N[C@@H](CCCN=C(N)N)C(=O)N[C@@H](CCC(N)=O)C(=O)N[C@@H](CC(C)C)C(=O)N[C@@H](CCCN=C(N)N)C(=O)NCC(=O)N[C@@H](CCC(N)=O)C(=O)N[C@@H](CC(C)C)C(=O)NCC(=O)N1CCC[C@H]1C(=O)N1CCC[C@H]1C(=O)NCC(=O)N[C@@H](CO)C(=O)N[C@@H](CCCN=C(N)N)C(N)=O` here?
The EC50 was 0.052 nM.

For H-MTLIGGAHNGSAQLLRQLRGQLGPPGSR-NH2, which EC50 is on record?
Its EC50 is 0.84 nM.

Which EC50 does the source give for `CC[C@H](C)[C@H](NC(=O)[C@H](CC(C)C)NC(=O)[C@@H](NC(=O)[C@@H](N)CCSC)[C@@H](C)O)C(=O)NCC(=O)N[C@@H](C)C(=O)N[C@@H](C)C(=O)N[C@@H](Cc1cnc[nH]1)C(=O)N[C@@H](CC(N)=O)C(=O)NCC(=O)N[C@@H](CO)C(=O)N[C@H](C)C(=O)N[C@@H](CCC(N)=O)C(=O)N[C@@H](CC(C)C)C(=O)N[C@@H](CC(C)C)C(=O)N[C@@H](CCCN=C(N)N)C(=O)N[C@@H](CCC(N)=O)C(=O)N[C@@H](CC(C)C)C(=O)N[C@@H](CCCN=C(N)N)C(=O)NCC(=O)N[C@@H](CCC(N)=O)C(=O)N[C@@H](CC(C)C)C(=O)NCC(=O)N1CCC[C@H]1C(=O)N1CCC[C@H]1C(=O)NCC(=O)N[C@@H](CO)C(=O)N[C@@H](CCCN=C(N)N)C(N)=O` here?
Its EC50 is 0.26 nM.

`CC[C@H](C)[C@H](NC(=O)[C@H](CC(C)C)NC(=O)[C@@H](NC(=O)[C@@H](N)CCSC)[C@@H](C)O)C(=O)NCC(=O)N[C@@H](C)C(=O)N[C@@H](C)C(=O)N[C@@H](Cc1c[nH]cn1)C(=O)N[C@@H](CC(N)=O)C(=O)NCC(=O)N[C@@H](CO)C(=O)N[C@@H](C)C(=O)N[C@@H](CCC(N)=O)C(=O)N[C@@H](CC(C)C)C(=O)N[C@@H](CC(C)C)C(=O)N[C@@H](CCCN=C(N)N)C(=O)N[C@@H](CCC(N)=O)C(=O)N[C@@H](CC(C)C)C(=O)N[C@@H](CCCN=C(N)N)C(=O)NCC(=O)N[C@@H](CCC(N)=O)C(=O)N[C@@H](CC(C)C)C(=O)NCC(=O)NC(=O)[C@H](C)NC(=O)N1CCC[C@H]1C(=O)NCC(=O)N[C@@H](CO)C(=O)N[C@@H](CCCN=C(N)N)C(N)=O` (H-MTLIGAAHNGSAQLLRQLRGQL-X1) was tested. Which EC50 did it give?
The EC50 was 0.29 nM.

With H-MTLIGAAHNGSAQLLRQLRGQLGPPGSA-NH2 as the compound, how does the EC50 read?
The EC50 was 0.2 nM.

From ChEMBL document CHEMBL1145783, “Development of an orexin-2 receptor selective agonist, [Ala(11), D-Leu(15)]orexin-B” (Bioorg Med Chem Lett, 2003)
